Key:
[1] = target: T1, GST-FABP4; experiment: Evaluation of FABP ligand affinity using ANS (GST-FABP4); type: binding, mouse; details: ANS fluorescence displacement; mean±SE of three measurements; read-out: Kd value of FABP for each ligand, GST-FABP4
T1 construct: made in house; host or cells: E. coli BL21 (DE3)
Procedure: (§1) GST-FABP3, GST-FABP4, GST-FABP5, and GST-FABP7 were each expressed in E. coli [BL21 (DE3) strain], and then affinity purification was performed using a glutathione column.
(§2) Cloning of GST-FABP3, GST-FABP4, GST-FABP5 and GST-FABP7 vectors was performed by the following method. After reverse transcription of mRNA isolated from mouse heart into cDNA, the FABP3 gene (RefSeqID: NM_010174.1) and FABP4 gene (RefSeqID: NM_024406.2) were each amplified by PCR. These cDNAs were each inserted between the BamHI/EcoRI cleavage sites of a pGEX-2T vector (GE HealthCare Japan, Tokyo) using a DNA ligation kit (Takara Bio, Kusatsu) and an In-fusion kit (Takara Bio USA, CA, USA) to prepare vectors.
(§3) Purification of GST-binding proteins was performed using a GST purification kit (Takara Bio USA). After the E. coli were collected by centrifugation, the provided extraction buffer and aluminum oxide powder were added, and the mixture was crushed in a mortar. The centrifuged supernatant was added to the provided glutathione column and allowed to stand on ice for 30 minutes. The supernatant in the column was then discarded, and washing was performed with extraction buffer, followed by elution with elution buffer containing glutathione. The protein concentration of the elution product was calculated from the absorbance at 280 nm and then used for the ANS assay. 1-anilinonaphthalene-8-sulfonic acid (ANS, final concentration: […], in a solution of 10 mM KH2PO4 and 40 mM KCl at pH 7.4), which binds to FABP proteins and emits fluorescence, and FABP proteins (final concentration: […]), as well as various ligands at concentrations of 0 nM, 100 nM, 1,000 nM, 2,000 nM, and 4,000 nM (final) were incubated for 2 min, and then the fluorescence of ANS was measured (Ex/Em=355 nm/460 nm). The fluorescence intensity at each ligand concentration was converted to a relative value (%) to the ANS fluorescence intensity in the absence of ligand, and then the dissociation constant Kd (nM) was calculated by […] using the following equation.
The Kd values in the above table are indicated as the mean±SE of three measurements. […] Example Compounds 1 to 5 in the table may also be referred to as Compounds 1 to 5, respectively.

[2] = target: T2, GST-FABP5; experiment: Evaluation of FABP ligand affinity using ANS (GST-FABP5); type: binding, mouse; details: ANS fluorescence displacement; mean±SE of three measurements; read-out: Kd value of FABP for each ligand, GST-FABP5
T2 construct: made in house; host or cells: E. coli BL21 (DE3)
Procedure: as §1, §2, §3

[3] = tested on: MPTP-treated C57BL6 N mice (PD model animals); experiment: Rotarod task in PD model animals (MPTP); type: in vivo, mouse; details: Example Compound 2 0.03, 0.1, 0.3 mg/kg or LIGAND 1 0.3 mg/kg, Day 34, 20 rpm, FIG. 4
[4] = tested on: MPTP-treated C57BL6 N mice (PD model animals); experiment: Beam walking task in PD model animals (MPTP); type: in vivo, mouse; details: Example Compound 2 0.03, 0.1, 0.3 mg/kg or LIGAND 1 0.3 mg/kg, Day 34, FIG. 5
Procedure: In the beam walking task, the mice were placed on a thin board and allowed to walk, and the number of foot slips before reaching the goal box (corresponding to the vertical axis Number of foot slips in FIG. 5) was measured.

[5] = tested on: dopaminergic neurons (TH+ cells) in SNpc and VTA; experiment: Dopaminergic neuroprotection: TH-positive cells in brain sections of PD model animals; type: in vivo, mouse; details: MPTP mice; Example Compound 2 0.1, 0.3, 1.0 mg/kg or LIGAND 1 0.3 mg/kg; Day 34; FIGS. 6 to 9
Text: The results for the substantia nigra region are shown in FIGS. 6, 7, 10, 11, 14, and 15, and for the ventrotegmental area in FIGS. 8, 9, 12, 13, 16, and 17 (the vertical axis Number of TH^+ cells in FIGS. 6 and 8 corresponds to the number of dopaminergic neurons. The vertical axis Number of double-positive cells/TH^+ positive cells (%) in FIGS. 11 and 13 corresponds to the percentage of dopaminergic neurons that contain phosphorylated α-synuclein. The vertical axis Triple-positive cells/TH-positive cells in FIGS. 15 and 17 corresponds to the percentage of dopaminergic neurons that contain both FABP3 and phosphorylated α-synuclein).

[6] = tested on: dopaminergic neurons; details: reported in PTL 1 and NPL 6; cited from earlier work

T1 sequence (P15090 whole entry): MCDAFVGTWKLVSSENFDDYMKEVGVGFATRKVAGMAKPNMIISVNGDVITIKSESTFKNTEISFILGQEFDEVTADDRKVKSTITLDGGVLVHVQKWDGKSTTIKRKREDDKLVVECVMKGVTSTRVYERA
T2 sequence (Q01469 whole entry): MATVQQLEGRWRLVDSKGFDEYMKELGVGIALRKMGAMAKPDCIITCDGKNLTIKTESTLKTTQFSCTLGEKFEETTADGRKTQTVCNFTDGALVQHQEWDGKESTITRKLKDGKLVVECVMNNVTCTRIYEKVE

O=C(O)CCCOc1ccccc1-c1cc(-c2ccccc2Cl)n(-c2ccccc2)n1 [LIGAND 1, reference compound]
Kd [1]: 229 ± 39.9 nM
Kd [2]: 324 ± 45.2 nM
Rotarod task: time until the mice fell (Latency), motor function [3]: No improvement was observed
Beam walking task: number of foot slips, motor function [4]: Improvement was also confirmed
Number of TH+ cells (dopaminergic neurons) in SNpc and VTA [5]: no improvement was observed
Protection of dopaminergic neurons from cell death due to α-synuclein oligomerization [6]: protects dopaminergic neurons from cell death

— US20260085047A1, “TRIPHENYLAZOLE COMPOUND” (SHIRATORI PHARMACEUTICAL CO., LTD., priority 2022, published 2026)
